The values below come from ChEMBL document CHEMBL1201862, “PubChem BioAssay data set” (2004).

The target in assay [1] is Potassium voltage-gated channel subfamily KQT member 2 (Rattus norvegicus, UniProt O88943). Kind of assay: potentiation of rat KCNQ2 current – cell-based, retigabine-insensitive compounds, dose response (AID 2654). The format is functional.
Assay [2] has as its target Female germline-specific tumor suppressor gld-1 (Caenorhabditis elegans, UniProt Q17339). The assay can be described thus: blockers of GLD-1/TGE RNA complex formation – biochemical, fluorescence polarization, C. elegans, dose response (AID 2802).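 Also: fluorescence polarization of labeled TGE RNA bound by purified gld-1 protein.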
The target of another assay is 14-3-3 protein gamma (Homo sapiens, UniProt P61981). Kind of assay: modulators of 14-3-3 gamma client binding – dose response (AID 711). In kind it is functional.
The target in a further assay is Protein Rev (Human immunodeficiency virus type 1 group M subtype B (isolate HXB2)(HIV-1), UniProt P04618). The assay can be described thus: blockers of HIV Rev/RRE RNA complex – biochemical, fluorescence polarization, HIV-1, dose response (AID 434976). The arrangement: species or system Human immunodeficiency virus 1.
The target in the next assay is Genome polyprotein (dengue virus type 2, UniProt P29990). Kind of assay: flavivirus cap methylation enzyme inhibition – biochemical, confirmation dose response, primary screen (AID 588689). In kind it is functional.
For assay [3], the target named is T1, Long-chain-fatty-acid--AMP ligase FadD28 (Mycobacterium tuberculosis, UniProt P9WQ59).
T1 sequence (P9WQ59 whole entry): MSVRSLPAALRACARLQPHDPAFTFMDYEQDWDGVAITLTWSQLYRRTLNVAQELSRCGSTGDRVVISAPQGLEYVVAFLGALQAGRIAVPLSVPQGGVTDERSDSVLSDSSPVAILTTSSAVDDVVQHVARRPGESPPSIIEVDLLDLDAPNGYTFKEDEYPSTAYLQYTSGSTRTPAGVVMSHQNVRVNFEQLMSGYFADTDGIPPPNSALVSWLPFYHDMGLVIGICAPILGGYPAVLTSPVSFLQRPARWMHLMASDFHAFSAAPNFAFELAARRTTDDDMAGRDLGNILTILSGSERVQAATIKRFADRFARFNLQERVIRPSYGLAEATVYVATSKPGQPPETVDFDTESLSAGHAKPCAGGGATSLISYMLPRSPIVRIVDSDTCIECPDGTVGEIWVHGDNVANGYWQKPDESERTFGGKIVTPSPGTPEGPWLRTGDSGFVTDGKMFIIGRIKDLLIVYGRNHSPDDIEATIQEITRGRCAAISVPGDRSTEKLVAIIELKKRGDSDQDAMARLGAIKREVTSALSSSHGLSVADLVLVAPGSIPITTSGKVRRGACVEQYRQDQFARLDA
Kind of assay: Fluorescence polarization aasay to screen for inhibitors that compete for the binding of FadD28 to a bisubstrate Measured in Biochemical System Using Plate Reader - 2147-01_Inhibitor_Dose_CherryPick_Activity. The format is functional, Mycobacterium tuberculosis H37Rv.

A short description of assay [4]: blockers of HIV-1 envelope-mediated cell-cell fusion – cherry-pick, dose response (AID 652057). The format is functional, cell-based.
The target of assay [5] is T2, Caspase-3 (Homo sapiens, UniProt P42574).
T2 sequence (P42574 whole entry): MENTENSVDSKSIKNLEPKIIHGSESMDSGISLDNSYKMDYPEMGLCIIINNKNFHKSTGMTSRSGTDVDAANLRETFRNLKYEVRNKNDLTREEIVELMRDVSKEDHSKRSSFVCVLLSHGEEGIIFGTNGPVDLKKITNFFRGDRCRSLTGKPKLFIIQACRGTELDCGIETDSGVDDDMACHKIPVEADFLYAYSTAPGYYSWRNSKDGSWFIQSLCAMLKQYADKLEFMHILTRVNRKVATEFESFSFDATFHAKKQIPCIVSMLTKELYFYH
Kind of assay: activators of human procaspase-3 D3A mutant – biochemical, absorbance, PC-3 D3A mutant, counter-screen for dual procaspase-3/7 activator project, dose response (AID 504328).

The target of the next assay is Cytochrome P450 2D6 (Homo sapiens, UniProt P10635).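 Also: CYP2D6 member of a cytochrome P450 panel assay.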
Assay [6] has as its target T3, Caspase-7 (Homo sapiens, UniProt P55210).
T3 sequence (P55210 whole entry): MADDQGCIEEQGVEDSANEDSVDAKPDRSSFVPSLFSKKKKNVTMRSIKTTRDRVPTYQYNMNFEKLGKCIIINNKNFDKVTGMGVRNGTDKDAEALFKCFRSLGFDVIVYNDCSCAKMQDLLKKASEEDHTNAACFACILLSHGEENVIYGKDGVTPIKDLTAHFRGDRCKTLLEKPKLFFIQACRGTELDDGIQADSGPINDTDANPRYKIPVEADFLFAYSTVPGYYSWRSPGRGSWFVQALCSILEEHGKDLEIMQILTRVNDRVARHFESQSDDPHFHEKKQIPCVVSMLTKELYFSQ
The assay can be described thus: potency of procaspase-7 enzyme activation – biochemical, absorbance, human, dual procaspase-3/-7 activator project, dose response (AID 504330).

Assay [7] is described as follows: non-specific 3'UTR reporter inhibition in Clone20-Shn3RL – cell-based, Renilla luciferase, cherry-picked, counter-screen for Shn3 inhibitor project, dose response (AID 624133). In kind it is functional.
Assay [8] can be described thus: fluconazole-exposed Candida albicans growth modulators – fluorescence, retest, confirmation (AID 2467). The format is functional, cell-based.
For the next assay, the target named is T4, Caspase-6 (Homo sapiens, UniProt P55212).
T4 sequence (P55212 whole entry): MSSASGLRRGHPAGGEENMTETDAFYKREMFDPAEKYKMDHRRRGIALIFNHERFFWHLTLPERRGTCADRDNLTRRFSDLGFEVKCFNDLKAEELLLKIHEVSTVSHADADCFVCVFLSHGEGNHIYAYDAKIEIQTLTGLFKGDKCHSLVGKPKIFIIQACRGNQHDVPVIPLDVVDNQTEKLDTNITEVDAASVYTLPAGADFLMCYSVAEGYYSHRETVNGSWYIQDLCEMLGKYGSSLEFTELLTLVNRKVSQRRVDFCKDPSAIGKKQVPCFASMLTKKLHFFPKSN
Kind of assay: inhibition of CASP6 peptide cleavage – biochemical, VEID-R110 fluorescence, cherry-pick, dose response (AID 720632).

The nature of assay [9]: NIH-3T3 fibroblast cytotoxicity, dose response, cytotoxicity control, cell-based, fluorescence, Alamar Blue, secondary assay (AID 2327).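 Also: NIH-3T3 mouse fibroblasts cultured with fluconazole at 8 µg/mL.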 In kind it is functional.
The target in assay [10] is T5, Zinc finger protein mex-5 (Caenorhabditis elegans, UniProt Q9XUB2).
T5 sequence (Q9XUB2 whole entry): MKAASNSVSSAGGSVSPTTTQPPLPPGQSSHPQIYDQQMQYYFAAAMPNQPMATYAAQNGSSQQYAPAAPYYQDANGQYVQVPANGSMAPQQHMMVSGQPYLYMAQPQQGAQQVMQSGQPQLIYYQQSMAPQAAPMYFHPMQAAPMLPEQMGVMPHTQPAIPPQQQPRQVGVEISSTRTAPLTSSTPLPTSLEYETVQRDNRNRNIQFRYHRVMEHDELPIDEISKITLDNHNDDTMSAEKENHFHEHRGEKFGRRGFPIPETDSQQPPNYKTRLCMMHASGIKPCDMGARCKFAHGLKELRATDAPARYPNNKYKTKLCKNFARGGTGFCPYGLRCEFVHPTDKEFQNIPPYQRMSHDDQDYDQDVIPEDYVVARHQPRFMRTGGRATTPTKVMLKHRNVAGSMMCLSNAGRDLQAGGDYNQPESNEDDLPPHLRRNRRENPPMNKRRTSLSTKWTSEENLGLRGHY
Kind of assay: potency of MEX-5 RNA-binding blockers – biochemical, C. elegans, fluorescence polarization, dose response (AID 1960).

The target in assay [11] is T6, RNA-binding protein pos-1 (Caenorhabditis elegans, UniProt G5EF15).
T6 sequence (G5EF15 whole entry): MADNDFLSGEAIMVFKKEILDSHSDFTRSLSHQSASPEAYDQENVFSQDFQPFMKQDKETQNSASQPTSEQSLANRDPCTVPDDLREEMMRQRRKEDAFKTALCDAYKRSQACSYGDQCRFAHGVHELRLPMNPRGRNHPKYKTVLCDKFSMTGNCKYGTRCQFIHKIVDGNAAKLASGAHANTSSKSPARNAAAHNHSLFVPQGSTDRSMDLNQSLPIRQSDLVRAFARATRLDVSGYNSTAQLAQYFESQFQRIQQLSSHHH
The assay can be described thus: disruptors of C. elegans POS-1 RNA interaction – biochemical, fluorescence polarization, dose response (AID 1964).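 Also: purified POS-1 fused to maltose binding protein made in E. coli; potency of compounds blocking POS-1 binding to fluorescent RNA.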

Assay [12] can be described thus: loss of viability in HepG2 cells – cell-based, CellTiter-Glo, cherry-picked, cytotoxicity control for Shn3 inhibitor project, dose response (AID 624134). In kind it is functional.
A further assay concerns the target Caspase-8 (Homo sapiens, UniProt Q14790). The assay can be described thus: inhibitors of purified CASP8 protease – biochemical, Z-IETD-R110 fluorescence, cherry-picked samples, selectivity assay for caspase-6 inhibitor project, dose response (AID 743294).
Assay [13] deals with G-protein coupled receptor 35 (Homo sapiens, UniProt Q9HC97). Kind of assay: inhibition of zaprinast-stimulated GPR35 beta-arrestin translocation – imaging, U2OS, beta-arrestin-GFP, zaprinast agonist, primary screen (AID 2058).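 Also: antagonist potency meaning inhibition of agonist-induced arrestin redistribution.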 In kind it is functional.
Assay [14] is described as follows: reduction of Shn3 3'UTR-driven luciferase in osteoblasts – cell-based, Clone20 osteoblasts, firefly luciferase, cherry-picked, dose response (AID 624132).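 Also: firefly luciferase luminescence from reporter carrying the Shn3 3'UTR in osteoblasts.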 In kind it is functional.
For assay [15], the target named is T3, Caspase-7. The assay can be described thus: caspase-7 enzyme inhibition, selectivity check – biochemical, DEVD-R110 fluorescence, cherry-pick, selectivity assay for caspase-6 inhibitor project, dose response (AID 743295). The format is functional.
Assay [16] deals with T7, Apoptotic protease-activating factor 1 (Homo sapiens, UniProt O14727).
T7 sequence (O14727 whole entry): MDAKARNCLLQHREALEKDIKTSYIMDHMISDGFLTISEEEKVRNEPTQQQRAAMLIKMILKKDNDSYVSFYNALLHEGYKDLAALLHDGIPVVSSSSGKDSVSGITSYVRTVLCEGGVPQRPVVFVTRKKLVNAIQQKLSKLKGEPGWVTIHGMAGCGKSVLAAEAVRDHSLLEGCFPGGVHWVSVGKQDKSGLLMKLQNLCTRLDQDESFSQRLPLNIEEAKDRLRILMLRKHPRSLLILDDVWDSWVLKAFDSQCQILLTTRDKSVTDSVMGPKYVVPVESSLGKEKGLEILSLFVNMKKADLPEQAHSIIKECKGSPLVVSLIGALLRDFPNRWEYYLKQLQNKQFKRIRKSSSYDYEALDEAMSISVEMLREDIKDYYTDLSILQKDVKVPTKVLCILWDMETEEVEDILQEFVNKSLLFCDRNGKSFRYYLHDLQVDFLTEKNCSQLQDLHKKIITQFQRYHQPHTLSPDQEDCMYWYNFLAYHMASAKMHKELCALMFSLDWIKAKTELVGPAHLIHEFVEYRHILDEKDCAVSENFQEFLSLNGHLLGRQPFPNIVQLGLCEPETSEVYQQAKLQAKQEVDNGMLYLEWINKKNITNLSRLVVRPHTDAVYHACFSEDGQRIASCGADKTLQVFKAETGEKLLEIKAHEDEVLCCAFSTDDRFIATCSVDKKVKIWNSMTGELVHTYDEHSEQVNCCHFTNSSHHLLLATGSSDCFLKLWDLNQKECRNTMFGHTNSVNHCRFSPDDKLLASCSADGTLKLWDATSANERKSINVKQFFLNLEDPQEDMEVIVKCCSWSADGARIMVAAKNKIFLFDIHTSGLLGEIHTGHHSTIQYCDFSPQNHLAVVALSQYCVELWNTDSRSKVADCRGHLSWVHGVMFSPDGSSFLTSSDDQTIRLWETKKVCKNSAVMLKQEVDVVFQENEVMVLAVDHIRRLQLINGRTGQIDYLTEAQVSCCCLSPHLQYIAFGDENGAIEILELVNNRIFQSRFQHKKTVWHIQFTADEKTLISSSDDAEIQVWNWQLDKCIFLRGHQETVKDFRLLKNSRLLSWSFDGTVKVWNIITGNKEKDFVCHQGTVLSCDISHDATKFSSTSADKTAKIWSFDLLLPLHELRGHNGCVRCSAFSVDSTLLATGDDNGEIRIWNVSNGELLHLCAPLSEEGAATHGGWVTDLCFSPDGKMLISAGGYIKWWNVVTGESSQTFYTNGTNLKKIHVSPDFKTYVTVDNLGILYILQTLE
The format is functional.

Assay [17] deals with T2, Caspase-3. The assay can be described thus: human caspase-3 protease activity blockade – biochemical, fluorescence, cherry-picked samples, selectivity assay for caspase-6 allosteric inhibitor project, dose response (AID 743291).

Active and inactive are the calls of the source.

Chain of 14-3-3 protein gamma (P61981 whole entry): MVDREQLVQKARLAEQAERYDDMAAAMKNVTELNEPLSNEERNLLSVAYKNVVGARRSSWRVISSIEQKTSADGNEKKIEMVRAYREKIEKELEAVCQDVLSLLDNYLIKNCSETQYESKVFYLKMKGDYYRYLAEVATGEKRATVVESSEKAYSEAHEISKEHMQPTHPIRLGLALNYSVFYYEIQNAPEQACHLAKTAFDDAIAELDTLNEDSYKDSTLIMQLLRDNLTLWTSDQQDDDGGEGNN
Chain of Potassium voltage-gated channel subfamily KQT member 2 (O88943 whole entry): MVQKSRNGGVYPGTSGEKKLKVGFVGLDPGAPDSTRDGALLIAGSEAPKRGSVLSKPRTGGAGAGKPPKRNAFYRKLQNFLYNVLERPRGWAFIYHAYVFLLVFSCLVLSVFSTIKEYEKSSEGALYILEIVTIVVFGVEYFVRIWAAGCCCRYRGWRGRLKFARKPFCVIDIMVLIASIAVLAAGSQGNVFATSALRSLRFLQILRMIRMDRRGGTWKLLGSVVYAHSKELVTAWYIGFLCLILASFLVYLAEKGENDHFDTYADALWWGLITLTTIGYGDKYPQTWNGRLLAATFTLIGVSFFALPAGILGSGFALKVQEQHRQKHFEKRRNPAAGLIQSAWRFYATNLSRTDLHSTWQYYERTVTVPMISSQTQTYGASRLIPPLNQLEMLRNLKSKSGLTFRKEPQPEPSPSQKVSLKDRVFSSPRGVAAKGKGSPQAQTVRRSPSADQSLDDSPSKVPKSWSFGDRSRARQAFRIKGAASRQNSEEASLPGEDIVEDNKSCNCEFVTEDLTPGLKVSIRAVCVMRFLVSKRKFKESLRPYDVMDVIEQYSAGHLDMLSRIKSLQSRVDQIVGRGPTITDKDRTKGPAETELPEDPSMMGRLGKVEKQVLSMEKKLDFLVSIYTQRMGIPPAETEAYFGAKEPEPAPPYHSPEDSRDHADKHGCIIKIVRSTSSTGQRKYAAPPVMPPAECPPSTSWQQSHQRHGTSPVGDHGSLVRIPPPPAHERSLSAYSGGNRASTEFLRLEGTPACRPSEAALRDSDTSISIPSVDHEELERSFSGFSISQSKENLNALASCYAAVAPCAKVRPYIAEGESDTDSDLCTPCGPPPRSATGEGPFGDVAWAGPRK
Chain of Protein Rev (P04618 whole entry): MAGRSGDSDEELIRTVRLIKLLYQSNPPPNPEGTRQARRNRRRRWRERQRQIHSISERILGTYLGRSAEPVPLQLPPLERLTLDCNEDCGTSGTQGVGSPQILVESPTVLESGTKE
Chain of Caspase-8 (Q14790 217-374 limits assumed): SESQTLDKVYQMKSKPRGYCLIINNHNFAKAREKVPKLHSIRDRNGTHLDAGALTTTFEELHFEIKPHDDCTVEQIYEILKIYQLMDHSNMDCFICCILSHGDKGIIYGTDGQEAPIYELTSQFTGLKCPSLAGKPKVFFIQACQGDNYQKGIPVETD
Chain of Caspase-8 (Q14790 385-479 limits assumed): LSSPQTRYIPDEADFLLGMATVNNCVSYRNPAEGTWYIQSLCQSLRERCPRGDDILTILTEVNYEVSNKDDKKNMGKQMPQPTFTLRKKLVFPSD
Chain of Female germline-specific tumor suppressor gld-1 (Q17339 whole entry): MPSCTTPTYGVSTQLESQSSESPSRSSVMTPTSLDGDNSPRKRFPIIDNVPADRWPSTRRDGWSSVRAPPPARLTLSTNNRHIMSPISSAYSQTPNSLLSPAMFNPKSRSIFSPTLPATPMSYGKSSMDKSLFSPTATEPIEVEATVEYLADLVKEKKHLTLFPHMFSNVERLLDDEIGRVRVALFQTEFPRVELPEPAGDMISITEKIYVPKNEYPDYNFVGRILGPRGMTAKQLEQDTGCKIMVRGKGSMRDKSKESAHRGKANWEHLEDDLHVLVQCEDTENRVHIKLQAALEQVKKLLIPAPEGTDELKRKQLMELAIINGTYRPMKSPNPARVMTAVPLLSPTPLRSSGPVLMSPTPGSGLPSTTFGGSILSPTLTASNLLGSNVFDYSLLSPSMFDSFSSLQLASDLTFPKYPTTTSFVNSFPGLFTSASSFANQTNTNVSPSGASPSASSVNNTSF
Chain of Genome polyprotein (P29990 2492-3391 limits assumed): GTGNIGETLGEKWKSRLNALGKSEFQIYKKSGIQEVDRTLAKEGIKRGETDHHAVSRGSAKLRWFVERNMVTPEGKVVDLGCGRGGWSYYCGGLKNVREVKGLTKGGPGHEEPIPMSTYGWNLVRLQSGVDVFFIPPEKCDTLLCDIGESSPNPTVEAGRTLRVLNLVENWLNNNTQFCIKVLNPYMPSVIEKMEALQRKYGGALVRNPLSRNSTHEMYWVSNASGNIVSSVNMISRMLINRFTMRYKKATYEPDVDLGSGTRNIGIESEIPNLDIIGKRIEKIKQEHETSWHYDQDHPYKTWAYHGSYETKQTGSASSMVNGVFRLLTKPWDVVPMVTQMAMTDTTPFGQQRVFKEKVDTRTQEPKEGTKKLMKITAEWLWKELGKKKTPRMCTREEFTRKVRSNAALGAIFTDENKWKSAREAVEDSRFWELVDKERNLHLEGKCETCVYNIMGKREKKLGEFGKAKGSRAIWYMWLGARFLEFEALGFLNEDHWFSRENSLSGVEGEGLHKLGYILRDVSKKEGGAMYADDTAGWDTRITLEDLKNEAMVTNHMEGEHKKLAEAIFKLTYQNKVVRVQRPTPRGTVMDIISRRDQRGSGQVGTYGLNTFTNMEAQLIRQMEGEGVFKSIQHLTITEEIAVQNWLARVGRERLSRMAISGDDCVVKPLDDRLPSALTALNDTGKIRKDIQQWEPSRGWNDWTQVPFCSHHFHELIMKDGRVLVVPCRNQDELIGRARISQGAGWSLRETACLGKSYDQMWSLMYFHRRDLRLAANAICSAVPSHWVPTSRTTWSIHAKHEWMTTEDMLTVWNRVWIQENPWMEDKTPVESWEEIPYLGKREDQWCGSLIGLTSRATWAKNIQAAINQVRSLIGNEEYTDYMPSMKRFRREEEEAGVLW
Chain of Cytochrome P450 2D6 (P10635 whole entry): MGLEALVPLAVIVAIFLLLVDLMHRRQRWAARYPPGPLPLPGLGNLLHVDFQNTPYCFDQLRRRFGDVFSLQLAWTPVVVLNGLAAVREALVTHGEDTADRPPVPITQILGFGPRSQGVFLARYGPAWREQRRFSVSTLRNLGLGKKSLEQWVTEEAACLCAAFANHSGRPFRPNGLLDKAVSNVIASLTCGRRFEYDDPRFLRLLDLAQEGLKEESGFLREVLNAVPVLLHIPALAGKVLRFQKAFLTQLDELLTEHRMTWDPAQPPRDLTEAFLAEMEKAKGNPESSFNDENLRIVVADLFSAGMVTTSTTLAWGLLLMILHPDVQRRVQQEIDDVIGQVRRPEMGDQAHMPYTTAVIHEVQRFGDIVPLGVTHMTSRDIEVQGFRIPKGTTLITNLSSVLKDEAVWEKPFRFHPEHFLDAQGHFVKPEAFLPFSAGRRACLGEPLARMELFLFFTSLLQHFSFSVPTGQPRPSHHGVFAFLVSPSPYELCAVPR
Chain of G-protein coupled receptor 35 (Q9HC97 whole entry): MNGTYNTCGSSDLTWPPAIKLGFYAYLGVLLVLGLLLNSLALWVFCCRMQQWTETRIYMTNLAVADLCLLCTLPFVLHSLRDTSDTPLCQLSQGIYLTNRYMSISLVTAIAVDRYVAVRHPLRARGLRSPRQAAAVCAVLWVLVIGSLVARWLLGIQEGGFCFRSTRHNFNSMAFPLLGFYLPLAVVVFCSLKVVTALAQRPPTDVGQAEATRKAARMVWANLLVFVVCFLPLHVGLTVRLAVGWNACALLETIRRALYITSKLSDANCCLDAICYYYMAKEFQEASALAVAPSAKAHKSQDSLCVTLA

In the case of `Cc1ccc(NC(=O)Nc2cccnc2)cc1`, the concentration for a half-maximal effect (EC50) in [1] was 128 µM (active).
As for `CCn1c(CSc2nnc3ccccn23)nc2cc(C(=O)O)ccc21`, the IC50 is 11.2 µM (inactive) in assay [2], 0.853 µM (active) at 14-3-3 protein gamma, > 75.4 µM (not active) at Protein Rev and 23.2 µM (active) on Genome polyprotein. Besides, in assay [3], the AC50 was 50.1 µM (active).
Turning to `COc1ccc(Nc2ncc(C(=O)N3CCN(c4ccc(F)cc4)CC3)c3ccccc23)cc1`, the results for the AC50 (in [4]; on Cytochrome P450 2D6) were 49 µM (active) and 31.6 µM (inconclusive), respectively. Also, the EC50 on Caspase-3 [5] and on Caspase-7 [6] was > 85.2 µM (inactive) throughout.
Take `CCOc1ccc2nc3cc(NCc4ccc(OC)cc4)ccc3c(N)c2c1`: the half-maximal activity concentration (AC50) is 23 µM (active) in assay [7]; 4.3 µM (active) on Caspase-6; 16.5 µM (active) in [12]; 25.9 µM (active) on Caspase-8; 6.69 µM (active) in [14]; 9.75 µM (active) at Caspase-7 [15]. In addition, the AC50 on Caspase-3 [17] is 21.2 µM (active). The EC50 in assay [8] was 2.76 µM (active); in assay [9], > 150 µM (inconclusive); in assay [10], 3.94 µM (active); in assay [11] it was 4.47 µM (active). Moreover, the IC50 in assay [13] was 15.3 µM (inactive); in assay [16], 23.5 µM (active).
